Experimental data: ChEMBL document CHEMBL1201862, “PubChem BioAssay data set” (2004)
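Compound exposure: 48 hours, 5 concentrations, 96-well plates. At the GI50, growth is halved.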 The source made the active and inactive calls. Rule as the data show it: active = GI50 up to about 1.1 µM and inactive = higher.

Columns and labels:
Assay in all cases: DTP human tumour cell line panel, 48 h
[1] = system: 786-0
[2] = system: A498
[3] = system: A549
[4] = system: ACHN
[5] = system: BT-549
[6] = system: CAKI-1
[7] = system: CCRF-CEM
[8] = system: COLO 205
[9] = system: DU-145
[10] = system: EKVX
[11] = system: HCC 2998
[12] = system: HCT-116
[13] = system: HCT-15
[14] = system: HL-60
[15] = system: HOP-62
[16] = system: HOP-92
[17] = system: HT-29
[18] = system: Hs-578T
[19] = system: IGROV-1
[20] = system: K562
[21] = system: KM12
[22] = system: LOX IMVI
[23] = system: M14
[24] = system: MCF7
[25] = system: MDA-MB-231
[26] = system: MDA-MB-435
[27] = system: MDA-N
[28] = system: MOLT-4
[29] = system: Malme-3M
[30] = system: NCI-H226
[31] = system: NCI-H23
[32] = system: NCI-H460
[33] = system: NCI-H522
[34] = system: NCI/ADR-RES
[35] = system: OVCAR-3
[36] = system: OVCAR-4
[37] = system: OVCAR-5
[38] = system: OVCAR-8
[39] = system: PC-3
[40] = system: RXF 393
[41] = system: SF-268
[42] = system: SF-295
[43] = system: SF-539
[44] = system: SK-MEL-28
[45] = system: SK-MEL-2
[46] = system: SK-MEL-5
[47] = system: SK-OV-3
[48] = system: SN12C
[49] = system: SNB-19
[50] = system: SNB-75
[51] = system: SW-620
[52] = system: T47D
[53] = system: TK-10
[54] = system: U-251
[55] = system: UACC-257
[56] = system: UACC-62
[57] = system: UO-31
[58] = system: RPMI-8226
[59] = system: SR

Measured: GI50

COc1c(OC)c(OC)c2c(=O)c(OC)c(-c3ccc4c(c3)OCO4)oc2c1OC
78.5 µM: [13]
inactive: [1] > 100 µM | [2] 66.2 µM | [3] 53.2 µM | [4] 68.7 µM | [5] > 100 µM | [6] > 100 µM | [7] 23.8 µM | [8] > 100 µM | [9] > 100 µM | [10] 82.8 µM | [11] > 100 µM | [12] 86.7 µM | [14] 11.6 µM | [15] > 100 µM | [16] 1.48 µM | [17] > 100 µM | [18] > 100 µM | [19] > 100 µM | [20] 64.7 µM | [21] > 100 µM | [22] > 100 µM | [23] > 100 µM | [24] > 100 µM | [25] > 100 µM | [26] 82.4 µM | [27] > 100 µM | [28] 39.7 µM | [29] > 100 µM | [30] > 100 µM | [31] > 100 µM | [32] > 100 µM | [33] > 100 µM | [34] 86.9 µM | [35] > 100 µM | [36] > 100 µM | [37] > 100 µM | [38] 61 µM | [39] 69.2 µM | [40] > 100 µM | [41] > 100 µM | [42] > 100 µM | [43] > 100 µM | [44] > 100 µM | [45] > 100 µM | [46] 44.8 µM | [47] > 100 µM | [48] > 100 µM | [49] > 100 µM | [50] 65.3 µM | [51] > 100 µM | [52] 41.9 µM | [53] > 100 µM | [54] > 100 µM | [55] > 100 µM | [56] > 100 µM | [57] 57.8 µM

NCCCCNOCCCN
inactive: [3] > 100 µM | [4] > 100 µM | [5] > 100 µM | [6] > 100 µM | [7] > 100 µM | [8] > 100 µM | [9] > 100 µM | [10] > 100 µM | [11] > 100 µM | [12] > 100 µM | [16] > 100 µM | [17] > 100 µM | [18] > 100 µM | [19] > 100 µM | [20] > 100 µM | [21] > 100 µM | [22] > 100 µM | [23] > 100 µM | [24] > 100 µM | [26] > 100 µM | [27] > 100 µM | [28] > 100 µM | [29] > 100 µM | [30] > 100 µM | [31] > 100 µM | [32] > 100 µM | [33] 61.5 µM | [34] > 100 µM | [35] > 100 µM | [36] > 100 µM | [37] 42.8 µM | [38] > 100 µM | [39] > 100 µM | [58] > 100 µM | [40] > 100 µM | [41] > 100 µM | [42] > 100 µM | [43] > 100 µM | [44] > 100 µM | [45] > 100 µM | [46] > 100 µM | [47] > 100 µM | [48] > 100 µM | [49] > 100 µM | [50] > 100 µM | [59] > 100 µM | [51] > 100 µM | [52] > 100 µM | [53] > 100 µM | [54] > 100 µM | [55] > 100 µM | [56] > 100 µM | [57] > 100 µM

CCOC(=O)C1=C(C)NC(c2ccccc2)=C(C(=O)OCc2ccccc2)C1C#Cc1ccccc1 (centres undefined)
inactive: [1] > 100 µM | [2] > 100 µM | [5] > 100 µM | [7] > 100 µM | [8] > 100 µM | [9] > 100 µM | [10] > 100 µM | [12] > 100 µM | [14] > 100 µM | [15] > 100 µM | [18] > 100 µM | [19] 79.8 µM | [20] > 100 µM | [21] > 100 µM | [22] > 100 µM | [23] > 100 µM | [24] > 100 µM | [26] > 100 µM | [28] > 100 µM | [29] > 100 µM | [30] > 100 µM | [31] > 100 µM | [34] > 100 µM | [35] > 100 µM | [37] > 100 µM | [38] > 100 µM | [39] > 100 µM | [58] > 100 µM | [40] > 100 µM | [41] > 100 µM | [42] > 100 µM | [43] > 100 µM | [45] > 100 µM | [46] > 100 µM | [47] > 100 µM | [48] 12.4 µM | [49] > 100 µM | [50] > 100 µM | [59] > 100 µM | [51] > 100 µM | [52] > 100 µM | [53] > 100 µM | [54] > 100 µM | [55] > 100 µM | [56] > 100 µM | [57] 58.2 µM
> 100 µM: [13]
active: [6] 0.0675 µM | [27] 0.274 µM
